Consider five compounds from paper PMC5596338 (Journal of Bone and Mineral Research, 2017).

The structures appear in SMILES notation.

Data set [1] relates to bone resorption (metaphyseal BMD). Briefly: Growing rat model adapted from the Schenk assay: BMD of proximal tibial metaphysis by DXA. Format: in vivo. The following applies: growing male Sprague Dawley rats, s.c. daily for 7 days. As to the method:
The antiresorptive potency of OX14 was measured by its effect on increasing BMD compared to ALN, ZOL, RIS, and MIN in a growing rat model adapted from the Schenk assay.26, 27 These studies were performed at the Procter & Gamble Health Sciences Center, Mason, OH, USA from 2007 to 2010, as part of the program of screening new bisphosphonates. Male Sprague Dawley rats (6 weeks old, weighing 120 to 150 g) were randomized into groups (n = 6) based on body weight. All groups received treatment by subcutaneous (s.c.) injection at the same time daily for 7 days. The first treatment was on day 0, and the last treatment on day 6, with animals euthanized by cervical dislocation on day 7. BMD of the proximal metaphysis of the right tibia was analyzed using dual‐energy X‐ray analysis (DXA) using a Hologic QDR‐4500 densitometer (Hologic, Inc., Waltham, MA, USA). Efficacy of each bisphosphonate was expressed as percentage change from the vehicle control group. The dose that increased BMD 20% greater than the control was determined via a logistic dose‐response relationship (SAS Institute, Inc., Cary, NC, USA), which estimates an efficacy value using animals in the study, and for comparison of bisphosphonates across studies. Data from compounds run in multiple studies was averaged.

Data set [2] in a line: Short-term (24-hour) skeletal retention based on urinary excretion after i.v. dosing. The following applies: for Percentage of the dose excreted in urine over 24 hours / Skeletal retention (% of administered dose): rats, i.v.; for Percentage of the dose excreted in urine over 24 hours: 0 to 24 hours, mean ± standard deviation, averaged from all studies; for Skeletal retention (% of administered dose): calculated as dose administered minus urinary excretion over 24 hours. Format: in vivo, Sprague Dawley rats.

Data set [3] is described as follows: Mineral binding affinity: elution from hydroxyapatite (HAP) columns by FPLC. The class given is physicochemical. The following applies: HAP column, mean ± SE.
Data set [4] deals with experimentally induced inflammatory colitis. Also noted: method as in earlier work. The settings on record: cited from earlier work.
Data set [5] is described as follows: Adverse side effects observed across all in vivo studies. More on the design: species or system rats and mice. An excerpt: Sprague Dawley rats, C57BL/6J and NOD/SCID‐γ (NSG, NOD.Cg‐Prkdcscid Il2rgtm1Wjl/SzJ) mice were purchased from Charles River Laboratories (Wilmington, MA, USA/Margate, UK). All animals were housed in cages under standard conditions (12‐hour light/dark cycle). NSG mice were housed in specific‐pathogen‐free conditions. All animals were healthy and pathogen‐free at the start of each study and once each study had commenced they were monitored daily for any unexpected adverse effects. […] Similar calculations were used to determine group numbers in non–tumor‐bearing animals based on previously observed changes in bone (BMD or trabecular bone fraction [BV/TV]).

The subject of data set [6] is JJN3 myeloma cells in NSG mice. Nature of the data set: JJN3-NSG murine model of myeloma-induced bone disease. Format: in vivo. The settings on record: for Osteoclast number (cortico-endosteal surface) / Cortical bone lesions by μCT / Osteolytic disease by μCT / Tumor burden by flow cytometric analysis of femoral bone marrow flushes / BV/TV by μCT: ZOL 28.4, OX14 23 µg P/kg s.c. 2×/week; for Osteoclast number (cortico-endosteal surface): tumor mice; for Cortical bone lesions by μCT / Osteolytic disease by μCT / BV/TV by μCT: vs tumor control; for BV/TV by μCT: tumor-bearing mice. As to the method: Female NSG mice (7 to 8 weeks old, weighing 19 to 23 g) were randomized based on weight into four groups (n = 8/group). Group 1 was a non–tumor‐bearing control group (naive). Groups 2 to 4 were injected via the tail vein with 1 × 10^6 JJN3 cells and then treated twice a week s.c. from the time of tumor cell injection for the duration of the study with vehicle control (PBS, group 2), ZOL (28.4 µg P/kg, group 3), or OX14 (23 µg P/kg, group 4). At the first signs of morbidity (after 3 weeks) all animals were anesthetized ([…] and 2% oxygen by inhalation) for cardiac bleeding and euthanized by cervical dislocation. Bone disease and tumor burden were assessed as described below (see Analysis of tumour burden).
At euthanasia, the right tibias were dissected free of soft tissue and fixed in 10% formalin before µCT analysis was used to measure the percentage of BV/TV. Tibias were scanned on a Skyscan 1272 (Bruker, Kontich, Belgium) at 4.3 μm with a 0.7‐degree rotation step, reconstructed using NRecon (v. 1.6.9.4; Bruker) and analyzed using CTAn (v. 1.12; Bruker). The number and area of cortical bone lesions (pixels^2) were assessed by taking the µCT datasets, removing the trabecular bone and then volume‐rendering the datasets to create 3D models using Drishti (version 1.0; ANUVizlab, Canberra, Australia), followed by analysis of three different sides of the bone using ImageJ software (version 1.47; NIH, Bethesda, MD, USA; https://imagej.nih.gov/ij/). After decalcification, wax embedding, and sectioning of the tibias, the numbers of osteoclasts (following tartrate‐resistant acid phosphatase [TRAP] staining) were assessed using OsteoMeasure Advanced Bone Histomorphometry Video System (Osteometrics, Inc., Decatur, GA, USA) and standard histomorphometric methods.28
Tumor burden was assessed on sections of tibias that had been stained with hematoxylin and eosin, where the distinct morphology of the myeloma cells distinguishes them from normal marrow. The proportion of bone marrow occupied by the myeloma cells was assessed using OsteoMeasure and expressed as a percentage of the whole bone section area as described.22 Tumor burden was also assessed in bone marrow flushes of the left femora by flow cytometry using an anti‐human HLA‐ABC‐APC antibody and an isotype‐matched control (R&D Systems, Minneapolis, MN, USA) as described.29, 30

For data set [7], the system named is bone (BV/TV, osteoclasts, osteoblasts). Nature of the data set: In vivo OX14 dose response study in non-tumor-bearing mice (µCT and histomorphometry of tibias). More on the design: species or system C57BL/6J mice. How it is done: Tibias were then assessed by μCT and histological analyzes as described below (see Assessment of bone integrity). […] Bruker) and analyzed using CTAn (v. 1.12; Bruker). The number and area of cortical bone lesions (pixels^2) were assessed by taking the μCT datasets, removing the trabecular bone and then volume-rendering the datasets to create 3D models using […] (version 1.0; ANUVizlab, Canberra, Australia), followed by analysis of three different sides of the bone using ImageJ software (version 1.47; NIH, Bethesda, MD, USA; https://imagej.nih.gov/ij/). After decalcification, wax embedding, and sectioning of the tibias, the numbers of osteoclasts (following tartrate-resistant acid phosphatase [TRAP] staining) were assessed using OsteoMeasure Advanced Bone Histomorphometry Video System (Osteometrics, Inc., Decatur, GA, USA) and standard histomorphometric methods.28

For `NCCCC(O)(P(=O)(O)O)P(=O)(O)O` [Alendronate, alendronate], in data set [1], the “Dose required to increase BMD by 20% greater than control” value is 1.52 μg P/kg.
Regarding `O=P(O)(O)C(O)(Cc1cnc2ccccn12)P(=O)(O)O` [Minodronate, minodronate], in data set [2], the “Percentage of the dose excreted in urine over 24 hours” value (“Percentage of the dose excreted” below) is 44.80% ± 1.6 and the “Skeletal retention (% of administered dose)” value was 55.2 ± 1.6 % of administered dose. Besides, in data set [1], the “Dose required to increase BMD by 20% greater than control” value turned out to be 0.11 μg P/kg. Further, the “HAP affinity (mean retention time/min)” value in data set [3] stood at 10.33 ± 0.18 min.
On to `O=P(O)(O)C(F)(Cc1cnc2ccccn12)P(=O)(O)O` [OX14, 1‐fluoro‐2‐(imidazo‐[1,2‐α]pyridin‐3‐yl)‐ethyl‐bisphosphonate], for which, in data set [2], the “Percentage of the dose excreted” value is 52.85% ± 3.82 and the “Skeletal retention (% of administered dose)” value is listed as 47.15 ± 3.82 % of administered dose. The “Dose required to increase BMD by 20% greater than control” value in data set [1] came to 0.30 μg P/kg. Also, the “HAP affinity (mean retention time/min)” value in data set [3] amounted to 6.17 ± 0.08 min. Besides, in data set [4], the “Prevention of experimentally induced inflammatory colitis” value is recorded as “effectiveness in preventing experimentally induced inflammatory colitis”. Further, the “Adverse side effects (loss or gain of weight, liver toxicity, or death)” value in data set [5] was “no adverse side effects”. Also, the “Tumor burden (overall statement)” value in data set [6] (OX14 23 µg P/kg s.c. 2×/week) was “not to reduce tumor burden”. Moreover, in data set [6], the “Osteoclast number (cortico-endosteal surface)” value is “significant reduction in osteoclast number”, the “Cortical bone lesions by μCT” value is “significantly reduced”, the “Osteolytic disease by μCT” value is “prevented the osteolytic disease” and the “BV/TV by μCT” value is given as “significantly higher”. Moreover, the “Tumor burden by flow cytometric analysis of femoral bone marrow flushes” value in data set [6] (vs tumor control (JJN3)) is given as “no significant reduction in tumor burden”. The “BV/TV by μCT” value in data set [7] (OX14 23 µg P/kg s.c. 2×/week, 3 weeks, vs vehicle) was “increased BV/TV”. In data set [7] (OX14 2.3 and 0.23 µg P/kg s.c. 2×/week, 3 weeks, vs vehicle), the “BV/TV by μCT” value is “not significantly different from the vehicle control group”. Besides, the “Osteoclast perimeter on the trabecular bone perimeter” value in data set [7] (OX14 2.3 and 0.23 µg P/kg, vs vehicle control) is “neither of the lower doses of OX14 produced significant reductions”.
As for `O=P(O)(O)C(O)(Cc1cccnc1)P(=O)(O)O` [Risedronate, risedronate], the “% excretion (urine, 24 h)” value in data set [2] (RIS co-dosed with MIN or OX14) turned out to be 32.5 ± 0.1%; in data set [2] (RIS co-dosed with equal or greater amounts of ALN or ZOL), 43.2 ± 2.6%; in data set [2] (RIS dose 0.1 mg) it was 38.1 ± 5.6%; in data set [2] (RIS dose 0.5 mg) it was 45.1 ± 1.0%; in data set [2] (RIS dose 1 mg) it was 43.0 ± 1.8%. The “Percentage of the dose excreted” value in data set [2] is given as 34.91% ± 9.3. In addition, the “Skeletal retention (% of administered dose)” value in data set [2] is 65.1 ± 9.31 % of administered dose. Also, in data set [1], the “Dose required to increase BMD by 20% greater than control” value is 0.45 μg P/kg. Besides, the “HAP affinity (mean retention time/min)” value in data set [3] is on record as 9.97 ± 0.18 min.
With `O=P(O)(O)C(O)(Cn1ccnc1)P(=O)(O)O` [Zoledronate, zoledronate], in data set [2], the “Percentage of the dose excreted” value was 27.95% ± 3.18 and the “Skeletal retention (% of administered dose)” value was 72.05 ± 3.18 % of administered dose. Also, in data set [1], the “Dose required to increase BMD by 20% greater than control” value was 0.08 μg P/kg. Also, in data set [3], the “HAP affinity (mean retention time/min)” value is recorded as 12.53 ± 0.1 min. In addition, the “Tumor burden by histological analysis of tibias” value in data set [6] (28.4 µg P/kg ZOL s.c. 2×/week, vs tumor control (JJN3)) is listed as “significant reduction in tumor burden”. For the same compound, in data set [6], the “Osteoclast number (cortico-endosteal surface)” value is “significant reduction in osteoclast number”, the “Cortical bone lesions by μCT” value is recorded as “significantly reduced”, the “Osteolytic disease by μCT” value was “prevented the osteolytic disease” and the “BV/TV by μCT” value is “significantly higher”. Besides, the “Tumor burden by flow cytometric analysis of femoral bone marrow flushes” value in data set [6] (vs tumor control (JJN3)) is recorded as “no significant reduction in tumor burden”. Besides, in data set [7] (ZOL 28.4 µg P/kg s.c. 2×/week, 3 weeks, vs vehicle), the “Number of osteoblasts on the trabecular bone surface” value was “significant reduction in osteoblasts”.
